According to ChEMBL document CHEMBL1201862, “PubChem BioAssay data set” (2004):
The source made the active and inactive calls.

Tests used:
[1] = A cytotoxicity screen of small molecule inhibitors of the PhoP region in Salmonella typhi identified in the primary screen. [Related pubchem assays: 1850, 1864, 1985 ]; assay type: functional
[2] = target: Cytochrome P450 3A4 (Homo sapiens, UniProt P08684); details: Potency;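 also: confirmatory qHTS run detecting inhibitors and substrates of CYP3A4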
[3] = cells; assay type: functional, cell-based
[4] = cells; assay type: functional, cell-based; remark: listed apart in the source
[5] = NIH-3T3 fibroblast cytotoxicity, dose response, cytotoxicity control, cell-based, fluorescence, Alamar Blue, secondary assay (AID 2327); assay type: functional;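 also: NIH-3T3 mouse fibroblasts cultured with fluconazole at 8 µg/mL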
[6] = tested on: Streptococcus sp. 'group A'; assay: growth inhibition of control SK(-) GAS strain, dose response, counter-screen for streptokinase expression inhibitor project, luminescence, kanamycin, BacTiterGlo, confirmation (AID 1900); assay type: functional, organism-based
[7] = C. albicans growth with fluconazole, confirmation, fluorescence, retest (AID 2467); assay type: functional, cell-based
[8] = inhibitors of intracellular T. cruzi replication, confirmation, NIH3T3 host cells, beta-gal luminescence (AID 2044); assay type: functional, cell-based;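 also: intracellular parasites grown in NIH/3T3 mouse fibroblasts as host cells; luminescent beta-galactosidase reporter signal from transgenic T. cruzi replicating inside host cells; inhibitors lower the luminescence signal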
[9] = cytotoxicity toward NIH3T3 fibroblasts, dose response, counter-screen, cell-based, ATP luminescence, mouse fibroblasts (AID 2010); assay type: functional;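 also: cells exposed to compound for about 90 hours before reading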
[10] = tested on: Streptococcus; assay: Group A Streptococcus viability loss, dose response, counter-screen for streptokinase expression inhibitor project, luminescence, BacTiterGlo (AID 1915); assay type: functional, organism-based;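 also: potency for reduction of bacterial viability or growth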
[11] = THP-1 cell cytotoxicity, dose response, cytotoxicity control for non-replicating M. tuberculosis project (AID 489025); assay type: functional
[12] = target: T1, Short transient receptor potential channel 4 (Mus musculus, UniProt Q9QUQ5); assay: mouse TRPC4 channel activators, dose response, cell-based, HEK293 TRPC4/mu-opioid, Fluo-4 calcium (AID 434937); assay type: functional
T1 sequence (Q9QUQ5 whole entry): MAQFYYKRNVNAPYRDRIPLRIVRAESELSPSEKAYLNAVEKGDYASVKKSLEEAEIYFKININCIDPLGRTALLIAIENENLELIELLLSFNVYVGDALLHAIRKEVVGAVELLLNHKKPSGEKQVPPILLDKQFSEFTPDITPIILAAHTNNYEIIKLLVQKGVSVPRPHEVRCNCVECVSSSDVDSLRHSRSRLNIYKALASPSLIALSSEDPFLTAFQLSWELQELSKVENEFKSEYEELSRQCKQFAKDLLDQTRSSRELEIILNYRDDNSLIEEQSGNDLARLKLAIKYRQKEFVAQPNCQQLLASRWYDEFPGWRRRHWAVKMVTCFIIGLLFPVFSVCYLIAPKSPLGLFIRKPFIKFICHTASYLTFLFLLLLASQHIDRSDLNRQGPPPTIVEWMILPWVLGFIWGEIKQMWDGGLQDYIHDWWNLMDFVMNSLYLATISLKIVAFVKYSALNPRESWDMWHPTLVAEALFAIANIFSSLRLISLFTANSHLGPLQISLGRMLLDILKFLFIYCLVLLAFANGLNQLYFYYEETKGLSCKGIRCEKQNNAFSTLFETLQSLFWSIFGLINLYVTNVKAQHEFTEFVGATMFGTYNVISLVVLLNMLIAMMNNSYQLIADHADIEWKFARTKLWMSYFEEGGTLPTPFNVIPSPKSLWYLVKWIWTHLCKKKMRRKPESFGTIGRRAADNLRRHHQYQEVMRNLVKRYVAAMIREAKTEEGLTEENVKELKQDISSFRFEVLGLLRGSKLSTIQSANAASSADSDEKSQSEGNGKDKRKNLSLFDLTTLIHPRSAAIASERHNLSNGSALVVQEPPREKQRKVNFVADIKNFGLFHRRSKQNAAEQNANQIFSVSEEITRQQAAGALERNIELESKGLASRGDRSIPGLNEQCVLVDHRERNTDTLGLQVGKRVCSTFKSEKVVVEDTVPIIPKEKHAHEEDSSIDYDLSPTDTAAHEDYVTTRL

[13] = cells; assay type: functional
[14] = target: T2, Estrogen receptor (Homo sapiens, UniProt P03372);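 also: potency for inhibiting coactivator peptide recruitment to the receptor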
T2 sequence (P03372 whole entry): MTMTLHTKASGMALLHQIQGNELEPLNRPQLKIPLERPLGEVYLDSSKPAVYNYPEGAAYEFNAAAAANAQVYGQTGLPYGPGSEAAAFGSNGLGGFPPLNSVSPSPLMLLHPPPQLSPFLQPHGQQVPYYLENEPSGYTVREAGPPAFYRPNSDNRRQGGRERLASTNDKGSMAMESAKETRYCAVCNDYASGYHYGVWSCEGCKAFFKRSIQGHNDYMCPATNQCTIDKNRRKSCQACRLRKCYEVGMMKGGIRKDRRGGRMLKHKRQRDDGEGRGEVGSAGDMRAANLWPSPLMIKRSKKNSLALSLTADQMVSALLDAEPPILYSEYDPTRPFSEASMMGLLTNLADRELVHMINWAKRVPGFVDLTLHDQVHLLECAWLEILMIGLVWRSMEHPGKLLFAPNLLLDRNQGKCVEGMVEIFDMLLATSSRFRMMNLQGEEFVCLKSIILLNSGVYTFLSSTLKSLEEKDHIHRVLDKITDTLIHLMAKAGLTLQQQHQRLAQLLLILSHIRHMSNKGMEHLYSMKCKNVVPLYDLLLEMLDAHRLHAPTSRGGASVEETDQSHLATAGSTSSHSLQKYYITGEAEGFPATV

[15] = target: T3, Microphthalmia-associated transcription factor (Homo sapiens, UniProt O75030); assay: TRPM1 promoter luciferase signal decrease, dose response, MITF inhibitor project, cell-based, SK-MEL-5, cherry-picked, set 3 (AID 493073); assay type: functional
T3 sequence (O75030 whole entry): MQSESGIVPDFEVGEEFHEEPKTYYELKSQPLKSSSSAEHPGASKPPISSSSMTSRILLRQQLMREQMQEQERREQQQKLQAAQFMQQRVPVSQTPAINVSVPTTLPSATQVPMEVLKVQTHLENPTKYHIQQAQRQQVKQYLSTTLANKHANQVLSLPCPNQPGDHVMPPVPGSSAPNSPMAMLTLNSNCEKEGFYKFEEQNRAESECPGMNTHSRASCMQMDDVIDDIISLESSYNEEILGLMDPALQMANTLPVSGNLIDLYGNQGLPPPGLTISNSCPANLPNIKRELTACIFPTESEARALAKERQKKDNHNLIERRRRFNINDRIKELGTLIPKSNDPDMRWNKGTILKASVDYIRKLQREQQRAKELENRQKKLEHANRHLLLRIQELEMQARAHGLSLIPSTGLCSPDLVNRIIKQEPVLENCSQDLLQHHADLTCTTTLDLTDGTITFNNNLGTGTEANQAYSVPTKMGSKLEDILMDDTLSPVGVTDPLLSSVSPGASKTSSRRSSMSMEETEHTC

[16] = target: T1, Short transient receptor potential channel 4; assay: mouse TRPC4 channel inhibitors, dose response, cell-based, HEK293 TRPC4/mu-opioid, Fluo-4 calcium (AID 434942); assay type: functional;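 also: potency of inhibitors blocking the TRPC4 calcium response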
[17] = cytotoxicity in HEK-293T cells, dose response, cytotoxicity control for TCR NF-kB inhibitor project, luminescence, T-cell screen hits (AID 489026); assay type: functional, cell-based;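 also: cells exposed to compound about 14 hours before the viability readout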
[18] = target: T4, Rac GTPase-activating protein 1 (Homo sapiens, UniProt Q9H0H5); assay: MgcRacGAP GTPase-activating activity inhibitors, confirmation, biochemical, ADP Hunter fluorescence, primary and confirmatory (AID 624330); assay type: functional
T4 sequence (Q9H0H5 whole entry): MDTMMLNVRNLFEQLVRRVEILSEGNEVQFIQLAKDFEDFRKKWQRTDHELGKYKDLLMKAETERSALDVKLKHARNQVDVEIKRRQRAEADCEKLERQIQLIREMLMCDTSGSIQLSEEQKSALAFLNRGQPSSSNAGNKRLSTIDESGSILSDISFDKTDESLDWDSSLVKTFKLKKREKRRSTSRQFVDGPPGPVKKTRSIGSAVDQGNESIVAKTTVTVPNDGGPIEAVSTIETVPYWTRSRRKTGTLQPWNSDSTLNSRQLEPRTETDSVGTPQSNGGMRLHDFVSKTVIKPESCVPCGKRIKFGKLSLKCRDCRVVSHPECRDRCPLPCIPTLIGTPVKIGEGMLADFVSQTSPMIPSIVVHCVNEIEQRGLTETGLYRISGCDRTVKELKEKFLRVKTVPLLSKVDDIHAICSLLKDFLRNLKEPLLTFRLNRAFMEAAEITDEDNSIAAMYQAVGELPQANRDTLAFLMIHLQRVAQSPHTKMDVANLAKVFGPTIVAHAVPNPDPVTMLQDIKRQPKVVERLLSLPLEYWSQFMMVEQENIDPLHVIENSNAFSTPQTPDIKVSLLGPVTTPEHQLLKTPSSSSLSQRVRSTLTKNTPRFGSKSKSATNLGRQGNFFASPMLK

[19] = target: DNA dC->dU-editing enzyme APOBEC-3G (Homo sapiens, UniProt Q9HC16); assay: Dose Response confirmation of small molecule APOBEC3G DNA Deaminase Inhibitors via a fluorescence-based single-stranded DNA deaminase assay. [Related pubchem assays (depositor defined):AID493012, AID493028]; assay type: functional
[20] = target: Induced myeloid leukemia cell differentiation protein Mcl-1 (Homo sapiens, UniProt Q07820); assay type: functional
Chain of Induced myeloid leukemia cell differentiation protein Mcl-1 (Q07820 whole entry): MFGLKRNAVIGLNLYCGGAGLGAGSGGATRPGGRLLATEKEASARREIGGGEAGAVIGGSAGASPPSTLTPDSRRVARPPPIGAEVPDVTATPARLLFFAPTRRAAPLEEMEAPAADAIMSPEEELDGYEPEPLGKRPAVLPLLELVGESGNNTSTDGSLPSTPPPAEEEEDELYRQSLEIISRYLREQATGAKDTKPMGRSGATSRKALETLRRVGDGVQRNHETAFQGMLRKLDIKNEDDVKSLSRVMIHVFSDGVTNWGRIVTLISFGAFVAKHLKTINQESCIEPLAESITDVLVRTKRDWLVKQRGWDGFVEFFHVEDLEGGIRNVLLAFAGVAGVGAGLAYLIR

Chain of Cytochrome P450 3A4 (P08684 whole entry): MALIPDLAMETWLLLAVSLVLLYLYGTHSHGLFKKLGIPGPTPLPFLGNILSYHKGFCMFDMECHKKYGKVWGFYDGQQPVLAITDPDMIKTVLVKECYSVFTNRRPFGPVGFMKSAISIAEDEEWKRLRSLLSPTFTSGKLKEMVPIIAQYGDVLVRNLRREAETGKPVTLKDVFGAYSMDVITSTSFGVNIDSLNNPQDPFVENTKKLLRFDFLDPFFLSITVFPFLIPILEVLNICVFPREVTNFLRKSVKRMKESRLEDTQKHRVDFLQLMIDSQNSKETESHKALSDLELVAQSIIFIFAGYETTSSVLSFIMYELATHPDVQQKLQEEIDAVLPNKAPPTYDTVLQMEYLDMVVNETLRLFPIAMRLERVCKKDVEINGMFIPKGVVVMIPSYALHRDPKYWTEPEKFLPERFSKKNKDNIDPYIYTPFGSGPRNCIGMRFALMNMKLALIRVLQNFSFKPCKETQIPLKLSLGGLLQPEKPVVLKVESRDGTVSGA
Chain of DNA dC->dU-editing enzyme APOBEC-3G (Q9HC16 whole entry): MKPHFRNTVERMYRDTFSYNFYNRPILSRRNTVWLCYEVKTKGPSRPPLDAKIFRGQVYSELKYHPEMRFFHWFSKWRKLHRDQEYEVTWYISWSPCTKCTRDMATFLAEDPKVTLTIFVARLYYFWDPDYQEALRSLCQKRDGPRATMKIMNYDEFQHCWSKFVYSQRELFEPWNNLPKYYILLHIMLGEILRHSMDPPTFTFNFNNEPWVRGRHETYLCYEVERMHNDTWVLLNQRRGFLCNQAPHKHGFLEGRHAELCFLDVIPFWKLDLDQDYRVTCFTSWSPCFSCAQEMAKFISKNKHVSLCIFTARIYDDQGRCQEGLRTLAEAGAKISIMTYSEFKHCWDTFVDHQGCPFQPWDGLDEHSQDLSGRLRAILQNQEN

For Clc1cccc(CN2C3=NCCCN3c3ccccc32)c1, which EC50 [1] is on record?
Its EC50 is > 50 µM (active).

With C=CCC1(C)OC=Cc2nc3cc(Cl)c(Cl)cc3nc21 (stereo not given) as the compound, how does the AC50 [2] read?
Its AC50 is 3.98 µM (inconclusive).

With C=CCN(c1ccccc1)S(=O)(=O)c1cccc(C(=O)Nc2ncccc2O)c1 as the compound, how does the EC50 [3] read?
Its EC50 is > 350 µM (not active).

And the EC50 [4]?
Its EC50 is > 350 µM (not active).

With O=C(NC(=S)NNC(=O)[C@H]1C[C@@H]1c1ccccc1)c1cccc(F)c1 as the compound, how does the EC50 [5] read?
The EC50 was > 160 µM (inactive).

What about the EC50 [6] of the same compound?
The EC50 was 1.89 µM (active).

What about the EC50 [7] of the same compound?
Its EC50 is 1.91 µM (active).

What about the EC50 [8] of the same compound?
Its EC50 is 3.91 µM (active).

And the EC50 [9]?
The EC50 was 17.6 µM (active).

And the EC50 [10]?
The EC50 was 3.65 µM (active).

And the CC50 [11]?
The CC50 was > 40 µM (active).

What about the EC50 [12] of the same compound?
Its EC50 is 4.22 µM (active).

And the IC50 [13]?
The IC50 was 18.8 µM (active).

With O=C(CCC(=O)c1cccs1)Nc1nnc(C2CC2)s1 as the compound, how does the IC50 [14] read?
The IC50 was > 50 µM (not active).

Which EC50 [3] does the source give for Cn1nc(C(=O)NCCCN2CCCCC2)c2c1-c1ccccc1S(=O)(=O)C2 here?
Its EC50 is > 350 µM (not active).

What about the EC50 [4] of the same compound?
The EC50 was > 350 µM (not active).

For CCN1CCc2c(sc(NC(=O)c3ccc(S(=O)(=O)N4CCCC4)cc3)c2C(=O)NC)C1, which AC50 [15] is on record?
The AC50 was 9.14 µM (active).

For CCCn1c(C)nc2c(Nc3ccccc3)nc(C)nc21, which AC50 [2] is on record?
Its AC50 is 31.6 µM (inconclusive).

Which results are given for COc1ccc(OC)c(Nc2cc(-c3ccccc3)nc(N)n2)c1?
EC50 [16]: 4.73 µM (active); IC50 [17]: > 80 µM (inactive)

For Cc1cc(NS(=O)(=O)c2ccc(NC(=O)C(C)Oc3ccc4c(C)cc(=O)oc4c3)cc2)no1 (stereo not given), which EC50 [1] is on record?
The EC50 was > 50 µM (active).

With CCCCN(CCCC)CCNC(=O)CSCc1ccc(C)cc1 as the compound, how does the EC50 [1] read?
The EC50 was > 50 µM (active).

And the IC50 [18]?
The IC50 was 147 µM (active).

Which EC50 [1] does the source give for Cn1c(CN2CCCC2)nc2cc(NC(=O)COc3ccc(Cl)cc3)ccc21 here?
The EC50 was > 50 µM (active).

Which IC50 [19] does the source give for C=C(C)C(=O)Nc1cccc(C2=NOC3(C2)C[C@@H](C(N)=O)N(C(=O)[C@H]2CCC(=O)N2)C3)c1 (stereo not given in full) here?
Its IC50 is 19.3 µM (active).

For O=C(CCCCCN1C(=O)c2ccccc2C1=O)Nc1ccc2c(c1)OCCO2, which EC50 [3] is on record?
Its EC50 is > 350 µM (not active).

What about the EC50 [4] of the same compound?
Its EC50 is > 350 µM (not active).

For CC(C)Nc1c([N+](=O)[O-])nn(C)[n+]1[O-], which AC50 [15] is on record?
Its AC50 is 299 µM (active).

For CCCCn1c(NCc2ccc(N(C)C)cc2)nc2ccccc21, which IC50 [20] is on record?
The IC50 was 1.26 µM (active).

And the EC50 [16]?
The EC50 was 1.5 µM (active).

Which results are given for Cc1cc(C)cc(NC(=O)c2cccc(NC(=O)c3ccco3)c2)c1?
EC50 [3]: > 350 µM (not active); EC50 [4]: 34.9 µM (active)

With O=C(CC(=O)NCc1ccccc1)NCc1ccccc1 as the compound, how does the EC50 [1] read?
Its EC50 is > 50 µM (active).

For O=C(c1cccc(C(F)(F)F)c1)C1CCCN(Cc2cccn2-c2ccccn2)C1 (stereo not given), which EC50 [16] is on record?
The EC50 was 5.96 µM (active).

With COCCn1c(C)cc(C(=O)CSc2nnc(C)s2)c1C as the compound, how does the AC50 [15] read?
The AC50 was 3.04 µM (active).

With O=C(CSc1ccccc1)Nc1nnc(COc2ccc(Cl)cc2)s1 as the compound, how does the IC50 [19] read?
Its IC50 is 32.3 µM (active).

For OC1(c2ccc(F)cc2)CCN(Cc2ccccc2)C1 (stereo not given), which EC50 [16] is on record?
The EC50 was 2.99 µM (active).

With Cc1cc(-c2nnc(S)n2/N=C/c2ccco2)[nH]n1 as the compound, how does the IC50 [19] read?
The IC50 was 14.2 µM (active).

Which AC50 [2] does the source give for CC1(C)CC2C1CCC1(C)OC1CCC2(C)O (stereo not given) [2-HYDROXY-5 (6)EPOXY-TETRAHYDROCARYOPHYLLENE] here?
The AC50 was 25.1 µM (inconclusive).

With C=C[C@H]1CN2CC[C@H]1C[C@H]2c1[nH]c2ccccc2c1CCO [CINCHONAMINE] as the compound, how does the AC50 [2] read?
The AC50 was 31.6 µM (inconclusive).
